The NIST ThermoML archive (doi:10.1016/j.jct.2009.05.004)

Experiment: mn = molality of the nth substance listed, in mol/kg
Conditions: Liquid, Vibrating tube method

[Br-].[Br-].[Zn+2] [zinc bromide] + CCO
Conditions	mass density [kg/m3]
298.15 K, 39998 kPa, m1 = 0.1696	842.43
298.16 K, 5021 kPa, m1 = 1.887	1058.5
298.16 K, 15032 kPa, m1 = 0.05681	807.29
298.16 K, 15201 kPa, m1 = 0.9305	937
298.16 K, 15612 kPa, m1 = 0.1696	825.53
298.16 K, 15624 kPa, m1 = 0.3043	845.7
298.16 K, 20014 kPa, m1 = 0.4384	869.08
298.16 K, 29932 kPa, m1 = 0.3043	856.21
298.16 K, 34951 kPa, m1 = 0.1696	839.25
298.16 K, 35026 kPa, m1 = 1.887	1081.92
298.17 K, 5457 kPa, m1 = 0.3043	837.46
298.17 K, 25045 kPa, m1 = 0.05681	814.8
298.17 K, 25140 kPa, m1 = 1.887	1074.74
298.17 K, 25416 kPa, m1 = 0.1696	832.79
298.17 K, 35024 kPa, m1 = 0.9305	951.54
298.17 K, 39854 kPa, m1 = 0.3043	862.75
313.11 K, 20023 kPa, m1 = 0.1696	817.08
313.11 K, 39787 kPa, m1 = 1.887	1072.61
313.12 K, 29927 kPa, m1 = 1.887	1065.27
313.12 K, 34843 kPa, m1 = 1.887	1069.01
313.12 K, 39907 kPa, m1 = 0.1696	831.46
313.13 K, 4920 kPa, m1 = 0.4384	843.98
313.13 K, 14572 kPa, m1 = 0.1696	812.62
313.13 K, 24931 kPa, m1 = 0.1696	820.9
313.13 K, 25016 kPa, m1 = 1.887	1061.4
313.13 K, 35021 kPa, m1 = 0.05681	810.73
313.14 K, 5014 kPa, m1 = 0.05681	786.55
313.14 K, 5102 kPa, m1 = 0.3043	824.32
313.14 K, 9947 kPa, m1 = 0.9305	919.42
313.14 K, 29730 kPa, m1 = 0.4384	864.47
313.14 K, 34690 kPa, m1 = 0.4384	868
313.14 K, 39625 kPa, m1 = 0.3043	851.54
313.15 K, 1265 kPa, m1 = 0.05681	783.06
313.15 K, 1326 kPa, m1 = 0.3043	820.84
313.15 K, 1425 kPa, m1 = 1.49	988.5
313.15 K, 5027 kPa, m1 = 1.49	991.85
313.15 K, 9994 kPa, m1 = 1.887	1048.64
313.15 K, 10024 kPa, m1 = 0.05681	791.06
313.15 K, 10245 kPa, m1 = 0.3043	828.9
313.15 K, 10627 kPa, m1 = 1.49	996.89
313.15 K, 15329 kPa, m1 = 1.49	1000.98
313.15 K, 19809 kPa, m1 = 0.9305	927.83
313.15 K, 19932 kPa, m1 = 0.4384	856.94
313.15 K, 20014 kPa, m1 = 0.3043	837.09
313.15 K, 20065 kPa, m1 = 0.05681	799.53
313.15 K, 20324 kPa, m1 = 1.49	1005.17
313.15 K, 24735 kPa, m1 = 0.4384	860.72
313.15 K, 25035 kPa, m1 = 0.9305	932.01
313.15 K, 25647 kPa, m1 = 1.49	1009.46
313.15 K, 29901 kPa, m1 = 0.9305	935.73
313.15 K, 29925 kPa, m1 = 0.1696	824.61
313.15 K, 29954 kPa, m1 = 1.49	1012.81
313.15 K, 29964 kPa, m1 = 0.05681	807.13
313.15 K, 34524 kPa, m1 = 0.3043	848.04
313.15 K, 34627 kPa, m1 = 1.49	1016.31
313.15 K, 34851 kPa, m1 = 0.1696	828.08
313.15 K, 39846 kPa, m1 = 1.49	1020.06
313.15 K, 39878 kPa, m1 = 0.9305	942.83
313.15 K, 39881 kPa, m1 = 0.4384	871.49
313.15 K, 39914 kPa, m1 = 0.05681	814.03
313.16 K, 1622 kPa, m1 = 0.4384	840.91
313.16 K, 9861 kPa, m1 = 0.4384	848.44
313.16 K, 14924 kPa, m1 = 0.4384	852.81
313.16 K, 15002 kPa, m1 = 0.9305	923.82
313.16 K, 15021 kPa, m1 = 0.05681	795.37
313.16 K, 15032 kPa, m1 = 0.3043	833
313.16 K, 29952 kPa, m1 = 0.3043	844.75
313.16 K, 34974 kPa, m1 = 0.9305	939.43
313.17 K, 10022 kPa, m1 = 0.1696	808.74
313.17 K, 15110 kPa, m1 = 1.887	1053.14
313.17 K, 20144 kPa, m1 = 1.887	1057.41
313.17 K, 25481 kPa, m1 = 0.05681	803.78
313.17 K, 25921 kPa, m1 = 0.3043	841.73
313.18 K, 4967 kPa, m1 = 0.9305	914.91
313.19 K, 1520 kPa, m1 = 0.9305	911.69
313.19 K, 5004 kPa, m1 = 1.887	1044.1
313.2 K, 1456 kPa, m1 = 0.1696	801
313.2 K, 4848 kPa, m1 = 0.1696	804.13
313.24 K, 1850 kPa, m1 = 1.887	1041.15
333.12 K, 1327 kPa, m1 = 0.1696	782.58
333.12 K, 1898 kPa, m1 = 0.9305	892.88
333.12 K, 4943 kPa, m1 = 1.887	1024.22
333.12 K, 9762 kPa, m1 = 0.4384	830.56
333.12 K, 19882 kPa, m1 = 0.4384	840.07
333.12 K, 39840 kPa, m1 = 1.887	1055.35
333.13 K, 5145 kPa, m1 = 0.05681	769.04
333.13 K, 24749 kPa, m1 = 0.4384	844.29
333.13 K, 29989 kPa, m1 = 0.9305	919.06
333.13 K, 34942 kPa, m1 = 0.9305	922.93
333.14 K, 5187 kPa, m1 = 0.4384	825.95
333.14 K, 19787 kPa, m1 = 0.9305	910.38
333.14 K, 20014 kPa, m1 = 0.3043	820.51
333.14 K, 25451 kPa, m1 = 0.05681	788.08
333.14 K, 34776 kPa, m1 = 1.887	1051.46
333.15 K, 1541 kPa, m1 = 0.05681	765.27
333.15 K, 1627 kPa, m1 = 0.3043	802.62
333.15 K, 1698 kPa, m1 = 1.49	969.07
333.15 K, 4776 kPa, m1 = 0.1696	786.15
333.15 K, 5045 kPa, m1 = 1.49	972.54
333.15 K, 5098 kPa, m1 = 0.9305	896.23
333.15 K, 10025 kPa, m1 = 0.05681	773.96
333.15 K, 10027 kPa, m1 = 0.9305	901.19
333.15 K, 10046 kPa, m1 = 1.887	1029.4
333.15 K, 10624 kPa, m1 = 1.49	978.11
333.15 K, 15214 kPa, m1 = 1.887	1034.43
333.15 K, 15326 kPa, m1 = 1.49	982.61
333.15 K, 15924 kPa, m1 = 0.3043	816.79
333.15 K, 19921 kPa, m1 = 0.05681	783.27
333.15 K, 19984 kPa, m1 = 1.49	986.89
333.15 K, 24658 kPa, m1 = 1.49	991.01
